# Source: article PMC7690921, “Synthesis and Biological Evaluation of Analogues of Butyrolactone I as PTP1B Inhibitors” (Marine Drugs, 2020)
# pIC50: −log10 of the molar value.
# How the values were obtained:
# PTP1B = biological target: T1, PTP1B (Homo sapiens, UniProt P18031); experiment: PTP1B inhibitory assay (pNPP substrate); type: biochemical; details: for pIC50: pNPP 1 mM, 37 °C, Mean ± SD (n = 4), read-out: IC50 against PTP1B
# T1 sequence (P18031 1-435): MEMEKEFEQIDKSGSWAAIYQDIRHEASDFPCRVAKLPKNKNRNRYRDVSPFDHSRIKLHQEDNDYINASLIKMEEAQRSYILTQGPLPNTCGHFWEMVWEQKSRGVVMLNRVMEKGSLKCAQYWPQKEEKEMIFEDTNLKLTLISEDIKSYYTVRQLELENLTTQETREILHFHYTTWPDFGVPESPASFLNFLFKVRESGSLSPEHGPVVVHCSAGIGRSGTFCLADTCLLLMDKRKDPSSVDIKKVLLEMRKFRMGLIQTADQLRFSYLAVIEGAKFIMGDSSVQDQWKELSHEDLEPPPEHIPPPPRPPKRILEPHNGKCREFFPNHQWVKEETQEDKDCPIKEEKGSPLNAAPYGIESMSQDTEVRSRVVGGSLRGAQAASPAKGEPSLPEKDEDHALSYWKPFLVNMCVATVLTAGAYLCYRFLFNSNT
# Description: The tested compounds at designated concentrations were solubilized in DMSO, and 2 μL samples was added to 96-well clear polystyrene plate. […] Then, 78 μL of an assay buffer (25 mM Hepes, 150 mM sodium chloride (NaCl), 0.1% bovine serum albumin (BSA), 3 mM dithiothreitol, 1 mM ethylenediaminetetraacetic acid) and 10 μL of the PTP1B (10 μg/mL) was added and incubated for 10 min at 37 °C. The screening was initiated by adding 10 μL p-nitrophenyl phosphate (pNPP), and the catalysis of pNPP (1 mM) was continuously monitored on SpectraMax 340 microplate reader (Molecular Devices, Sunnyvale, CA, USA) at 405 nm for 20 min at 37 °C. The slope of the linear portion of the kinetic curve generated from each well was used to determine the activity of PTP1B. The inhibition effect of the compound was represented by the percentage of the slope of the linear portion of its kinetic curve relative to that of the negative control (DMSO). The IC50 was calculated with Prism 8 software (Graphpad, San Diego, CA, USA) from the non-linear curve fitting of the percentage of inhibition (%inhibition) versus the inhibitor concentration [I] by using the following equation: %Inhibition = 100/(1 + [IC50/[I]] ^k), where k is the Hill coefficient.
# IR HepG2 cells = experiment: Glucose consumed in insulin resistance model of HepG2 cells; type: cell-based; details: high glucose and high insulin stimulated HepG2; 24 h treatment
# Description: HepG2 cells (Cell Bank of Chinese Academy of Sciences, Shanghai, China) were seeded in 96-well plates in normal Dulbecco’s Modified Eagle’ Medium (DMEM, 5.6 mM glucose) supplemented with 10% fetal bovine serum (FBS). The density of the cells in each plate was 1 × 10^4 cells/mL. The original medium was removed when the cells became adherent. For the control group, the medium was replaced with […]. The model of insulin resistance was established by stimulation with high glucose DMEM (30 mM glucose) with 10^−7 mol/L insulin for 48 h. Then, the cells were treated with drug-free or drug-containing DMEM (5.6 mM glucose) containing 0.2% BSA and […] 1 × 10^−9 mol/L insulin for 24 h. Glucose consumption was detected with the glucose oxidase method using a glucose assay kit (Cat#BC2500, Solarbio, Beijing, China).
# RIN-m5f cell line = experiment: Cell proliferation assay (CCK-8), RIN-m5f; type: cell-based; details: CCK-8, 48 h
# Description: The cytotoxic effect of the synthesized butenolides on RIN-m5f (CRL-11605, American Type Culture Collection, Manassas, VA, USA) and HepG2 cells was determined with a Cell Counting Kit 8 (CCK-8) kit (Dojindo, Tokyo, Japan). Cells were seeded into 96-well plates in DMEM with 10% FBS in a volume of 100 µL per well and cultured overnight at 37 °C. The density of the cells in each plate was 1 × 10^4 cells/mL. According to the manufacturer’s protocol, after treatment with DMSO or varying concentrations of BLs for 48 h, 10 µL of CCK-8 solution was added to each well and cells were incubated for 2 h at 37 °C. Measure the absorbance at 450 nm of each well on a SpectraMax 340 microplate reader.
# α-glucosidase = biological target: α-glucosidase; design: method as in earlier work; details: cited from earlier work
# [1] = design: method as in doi:10.1007/s00044-013-0659-4; details: read-out: IC50 antioxidant activities; cited from earlier work
SMILES,PTP1B inhibitory activity (in words) (PTP1B),pIC50 (PTP1B),hypoglycemic effect (glucose consumed / glucose uptake) in IR HepG2 cells (IR HepG2 cells),cytotoxicity to RIN-m5f cell line (proliferation) (RIN-m5f cell line),pIC50 (α-glucosidase),pIC50 [1]
CC(C)=CCc1cc(CC2OC(=O)C(O)=C2c2ccc(O)cc2)ccc1OCc1ccccc1 (stereo not drawn) [BL-6],strong PTP1B inhibitory activity,4.77,did not improve the glucose uptake,significant cytotoxicity,–,–
CC(C)=CCc1cc(C2OC(=O)C(O)=C2c2ccc(O)cc2)ccc1O (stereo not drawn) [BL-2],–,3.87,–,–,–,–
O=C1OC(Cc2ccc(OCc3ccccc3)cc2)C(c2ccc(O)cc2)=C1O (stereo not drawn) [BL-5],strong PTP1B inhibitory activity,–,significant hypoglycemic effect,did not affect the proliferation,–,–
COC(=O)[C@]1(Cc2ccc(O)c(CC=C(C)C)c2)OC(=O)C(O)=C1c1ccc(O)cc1 [Butyrolactone I],–,–,–,–,4.28,4.29
COC(=O)C1(c2ccc(OCc3ccccc3)cc2)OC(=O)C(O)=C1c1ccc(O)cc1 (stereo not drawn) [BL-4],strong PTP1B inhibitory activity,4.54,–,–,–,–
CC(C)=CCc1cc(C2OC(=O)C(O)=C2c2ccc(O)cc2)ccc1OCc1ccccc1 (stereo not drawn) [BL-3],strong PTP1B inhibitory activity,–,significant hypoglycemic effect,did not affect the proliferation,–,–
